pEC50: −log10 of the molar value. Where two headings read alike, the source gives them in different places.
Assays:
Dengue-2 [1] = test: Dengue-2 infection of Vero cells, Intracellular FACS Assay; assay type: cell-based; settings: 20 μM
Description: Intracellular FACS Assay: Vero cells were seeded for 24 h pre-infection in 6-well plates. Cells were exposed to Dengue-2 in the presence of increasing concentrations of peptide (or DMSO as control). Viruses and peptide were washed away 2 h post-infection. Cells were taken for intracellular staining 3 days post-infection. Cells were stained with appropriate isotype control, Dengue Env, Dengue capsid or tubulin antibodies. Cells were analyzed by FACS.

[2] = Serum stability of L- and D-type peptides (10% FBS, 37° C., antiviral readout); assay type: in vitro ADME
From the text: Peptides composed of L-amino acids are susceptible to proteolysis, which could shorten their half-life and, thus, their biological activity. To examine this possibility and to determine if specific peptide-viral protein interactions mediate antiviral activity, peptide 1 was synthesized using all D-amino acids, purified to >95% homogeneity, and its antiviral activity and serum stability were compared with a similarly pure preparation of the L-type version of peptide #1. Both L- and D-type peptides were diluted 1:100 in complete growth medium (10% FBS) and mixed with an equal volume of viral supernatant.
In addition, to compare the serum stability of the L- and D-type peptides, the diluted peptide was incubated at 37° C. for 1 hour, 2 hours and 4 hours before mixing with viral supernatant. The virus-peptide mixture was then used to infect Huh-7.5.1 cells (MOI=0.1). After adsorption for 4 hours at 37° C., the virus-peptide inoculum was removed. The cells were washed 2 times, overlaid with 120 μL fresh growth medium and incubated at 37° C. for 3 days. Cells were lysed and subjected to RNA analysis. The HCV RNA transcript level was measured by real time RT-QPCR and normalized to cellular GAPDH levels. […] Thus, in addition to low immunogenicity and possible oral bioavailability, peptides composed of D-amino acids have the potential therapeutic advantage of enhanced serum stability.

HCV [3] = test: Median effective concentration (EC50) by intracellular HCV RNA RT-QPCR; assay type: cell-based, Hepatitis C virus (JFH-1); settings: FIG. 12B-C; Huh-7.5.1 cells, MOI 0.1; 3 days; read-out: EC50 of the L- and D-forms of peptide 1
Description: (§1) To determine the median effective concentration (EC50) of peptide #1, peptide stock solution (3.6 mM in DMSO) was serially 2-fold diluted in DMSO. An aliquot of peptide from each dilution was then diluted 1:100 in complete growth medium and mixed with equal volume of virus supernatant. The virus-peptide mixture was then used to infect Huh-7.5.1 cells (MOI=0.1). After adsorption for 4 hours at 37° C., the virus-peptide inoculum was removed. The cells were washed 2 times, overlaid with 120 μL fresh growth medium and incubated at 37° C. for 3 days. Cells were lysed and subjected to RNA analysis. The HCV RNA transcript level was measured by real time RT-QPCR and normalized to cellular GAPDH levels. The inhibition of HCV infection was calculated by comparing the intracellular HCV RNA transcript between the peptide treatment and solvent control.
as §1, with “(EC50) of the L- and D-form” for “(EC50)”, “serially diluted” for “serially”, “2-fold” for “2-fold diluted”

MTT cytotoxicity assay = assay type: cell-based; settings: human, hepatocyte cell lines, read-out: LD50 (MTT cytotoxicity)
Description: Peptide cytotoxicity was measured by MTT cytotoxicity assay based on the protocol provided in the ATCC MTT assay kit (Cat #30-1010K). In brief, 5000-10,000 cells were seeded per well in a 96 well plate. Following overnight growth, 100 μL fresh medium plus 20 μL of 2-fold serially diluted peptide was added. Media without peptides was added to at least 3 wells as untreated controls. The cells were then incubated for 72 hours at 37° C., 5% CO2. After this incubation, 1/10 volume of MTT solution ([…] in PBS) was added to each well, and the cells were returned to the incubator. Two hours later, the medium was removed, 150 μL DMSO was added to dissolve the purple precipitate formazan, and the plate was shaken at 150 rpm for 10 minutes. Absorbance at 570 nm less background at 670 nm is a reliable measure of […]. Cytotoxicity (LD50) of individual peptides was defined as the peptide concentration that caused 50% cell death.

HCV [4] = test: Binding/attachment/uptake of HCV RNA by Huh-7.5.1 cells; assay type: cell-based, Hepatitis C virus (JFH-1); settings: 18 μM; 4 hours at 37° C.; cell-associated HCV RNA
Description: To define the mechanism of antiviral activity of peptide #1, its ability to prevent the binding/attachment/uptake by cells of viral RNA in an infectious inoculum cells was examined. Huh-7.5.1 cells were seeded at 8000 cells per well in a 96-well plate. Sixteen hours later, the cells were incubated with HCV at MOI=0.1 in the presence or absence of peptide at a concentration of 18 μM. After adsorption for 4 hours at 37° C., the virus-peptide inoculum was removed. The cells were washed 2 times, lysed and subjected to RNA analysis. The HCV RNA transcript level was measured by real time quantitative polymerase chain reaction (RT-QPCR) assay and normalized to cellular GAPDH levels. Inhibitory activity was quantified by comparing the amount of cell-associated HCV RNA in cells exposed to the virus-peptide inocula versus the virus-DMSO control.

[5] = Preliminary in vivo toxicity in mice
Description: As a preliminary measurement of the in vivo cytotoxicity of the peptides 1, 2 and 3 (see Table 4) a group of three mice (BALB/c mice, 7 weeks old, about 23 g) were each injected with 92 μg L-type peptide 1 ( ˜4 mg/kg) in 200 μL PBS (spun 14,000 rpm for 3 minutes before injection). In the control group, each of three mice was given 200 μL PBS containing 5% DMSO. The mice were monitored for acute toxicity during the first 3 hours after injection.
No change in appearance, activity or behavior was observed. The mice were then weighed on days 0, 3, 5, 7 and 10. Peptide-injected mice gained weight at the same rate as the controls.

HCV [6] = test: Intracellular HCV RNA by real time RT-QPCR after infection of Huh-7.5.1 cells with and without peptide; assay type: cell-based, Hepatitis C virus (JFH-1)
Description: To accurately quantify the inhibitory effect of the selected peptides on HCV infection, intracellular HCV RNA was measured after infection by real time RT-QPCR with and without peptide treatment. The peptide stock solution was diluted 1:100 and mixed with equal volume of viral supernatant (propagated from day 18 virus preparation post transfection) to a final concentration approximately 20 μM. The virus with peptide or 0.5% DMSO solvent control was then used to infect Huh-7.5.1 cells at a multiplicity of infection (MOI) of 0.1. After an adsorption for 4 hours at 37° C., the inoculum was removed. The cells were washed 2 times, overlaid with 120 μL fresh growth medium and incubated at 37° C. At the indicated time points, total cellular RNA was isolated by the guanidine thiocyanate method. The HCV RNA transcript level was measured by real time RT-QPCR with the primers 5′—
normalized to cellular GAPDH levels.
To define the antiviral action of peptide #1 (SEQ ID NO:43), the antiviral activity of a series of N-terminal and C-terminal truncations of peptide 1 was analyzed using the focus reduction assay and by measuring the reduction in intracellular HCV RNA as described.

HCV [7] = test: HCV focus reduction assay; assay type: cell-based, Hepatitis C virus (JFH-1)
Description: To identify peptides that display antiviral activity against HCV infection, the peptide library was screened by an HCV focus reduction assay. The peptides were constituted in 100% DMSO at a final concentration 10 mg/mL, and stored in −20° C. The peptide stock solution was diluted 1:200 to a final concentration approximately 20 μM in complete DMEM growth medium containing 50 focus forming units (ffu) of HCV. The virus-peptide mixture was transferred to Huh-7.5.1 cells at a density of 8000 cells per well in a 96-well plate. After adsorption for 4 hours at 37° C., the inoculum was removed. The cells were washed 2 times, overlaid with 120 μL fresh growth medium and incubated at 37° C. After 3 days of culture, the cells were fixed with paraformaldehyde and immunostained with antibody against HCV nonstructural protein NS5A. The numbers of HCV foci were counted under fluorescent microscopy and the result is expressed as percentage (%) of mock with no peptide treatment but containing solvent 0.5% DMSO.
To determine whether the antiviral activity of peptide 1 is dependent on its primary amino acid sequence, four derivative peptides from peptide 1 were synthesized to a purity >95%. The four derivatives having the same composition of amino acids included (1) the reversed the sequence of peptide 1 (also called retro-peptide); (2) scrambled hydrophobic amino acids; (3) scrambled hydrophilic amino acids; and (4) a derivative in which the aspartic acid residues (D) were replaced with proline residues (P). The antiviral activity of the peptides was examined by HCV focus reduction assay at three peptide concentrations: 18 μM, 6 μM and 2 μM, as described above.

Dengue-2 [8] = test: Dengue-2 infection of Vero cells, Enzyme-linked Immunosorbent Assay; assay type: cell-based; settings: 1.25 μM, 5 days
Dengue-2 [9] = test: as above; assay type: cell-based; settings: for Inhibition of Dengue Infection, α-Capsid 9A7 / Inhibition of Dengue Infection, α-DEN ENV: Vero cells, 5 days
Description: Enzyme-linked Immunosorbent Assay. Vero cells (80,000 cells/well/ml) were seeded for 24 h pre-infection in 24-well plates. Cells were exposed to Dengue-2 (derived from Vero cells) in the presence of increasing concentration of peptide (or DMSO as control). Viruses and peptide were not removed (cells were not washed) throughout the incubation. Infection was analyzed after 5 days using ELISA that measured the amounts of Dengue-2 capsid released in the supernatant of infected Vero cells.

## CC[C@@H](C)[C@@H](NC(=O)[C@@H](CC(=O)O)NC(=O)[C@@H](CCCNC(=N)N)NC(=O)[C@@H](CC(C)C)NC(=O)[C@@H](Cc1c[nH]c2ccccc12)NC(=O)[C@H](N)CO)C(=O)N[C@H](Cc1c[nH]c2ccccc12)C(=O)N[C@H](CC(=O)O)C(=O)N[C@H](Cc1c[nH]c2ccccc12)C(=O)N[C@@H](C(=O)N[C@H](CS)C(=O)N[C@H](CCC(=O)O)C(=O)N[C@@H](C(=O)N[C@H](CC(C)C)C(=O)N[C@H](CO)C(=O)N[C@H](CC(=O)O)C(=O)N[C@H](Cc1ccccc1)C(=O)N[C@H](CCCCN)C(=O)O)C(C)C)[C@H](C)CC [D-2022 peptide]
Dengue-2 [1]; propidium iodide staining, Vero cells 3 days post-infection
  % of Dead cells PI: 3.83%
[2]
  Time entirely stable in 10% FBS at 37° C.: at least 4 hours
HCV [3]
  pEC50: ~6.00
MTT cytotoxicity assay; with FBS
  CC50 at 72 h: 36.8 µM
MTT cytotoxicity assay; without FBS
  CC50 at 72 h: 3.7 µM

## CTMLVCGDDLVVICESAG [Peptide 2]
HCV [4]
  Blocking of viral binding/attachment/uptake: significantly blocks viral binding/attachment/uptake
[5]; 92 μg ( ˜4 mg/kg) in 200 μL PBS, acute toxicity first 3 hours, weight to day 10
  In vivo toxicity observation: Peptides 1, 2 and 3 are Nontoxic in C57BL/6 Mice
[5]; day 0, ˜4 mg/kg injected
  Weight(g) (d.0): 25.3 g
[5]; day 3
  Weight(g) (d.3): 25.6 g
[5]; day 5
  Weight(g) (d.5): 25.9 g
[5]; day 7
  Weight(g) (d.7): 25.9 g
[5]; day 10
  Weight(g) (d.10): 25.6 g
HCV [6]; 24 h, 25 μM, Huh-7.5.1 cells, MOI 0.1, normalized to GAPDH
  HCV RNA fold inhibition 24 h 25 μM: 86 fold
HCV [6]; 72 h, 25 μM, Huh-7.5.1 cells, MOI 0.1, normalized to GAPDH
  HCV RNA fold inhibition 72 h 25 μM: 40 fold
HCV [7]; cell culture model of HCV infection
  Inhibition of HCV infection: strongly inhibit HCV infection
HCV [7]; inhibition of HCV infection, peptide approximately 20 μM, Huh-7.5.1 cells, 3 days
  Fold Inhibition: 100.0 fold
HCV [7]; number of HCV foci as % of mock (0.5% DMSO), peptide approximately 20 μM, Huh-7.5.1 cells, 3 days
  % of Mock: 1.0%
HCV [7]; peptide library screen, approximately 20 μM
  Fold inhibition of HCV infection: more than ten-fold

## SWLRDIWDWICEVL [^C-14mer]
Dengue-2 [8]
  Inhibition of Dengue Infection, α-DEN ENV: 0%
Dengue-2 [1]; FIG. 18
  Inhibition of Dengue viral infection as detected by FACS: ~100%
Dengue-2 [9]; 1.25 μM
  Inhibition of Dengue Infection, α-Capsid 9A7: 11.4%
Dengue-2 [9]; 5 μM
  Inhibition of Dengue Infection, α-Capsid 9A7: 22.7%
  Inhibition of Dengue Infection, α-DEN ENV: 29.65%
Dengue-2 [9]; 20 μM
  Inhibition of Dengue Infection, α-Capsid 9A7: 98.3%
  Inhibition of Dengue Infection, α-DEN ENV: 97.8%
Dengue-2 [9]; FIG. 17, 20 μM
  Inhibition of Dengue viral infection as detected by ELISA: ~100%
HCV [6]; 24 h, working concentration 18.4-27.5 μM per peptide
  Fold Inhibition on HCV RNA (24 h): 20274.7 fold
HCV [6]; 72 h, working concentration 18.4-27.5 μM per peptide
  Fold Inhibition on HCV RNA (72 h): 237172.4 fold
HCV [7]; 72 h, working concentration 18.4-27.5 μM per peptide, Mock 51
  Focus Reduction (72 h): 0
